Results as given in patent US20020077291A1, “Method of treatment of tumors using transforming growth factor-alpha” (priority 2000, published 2002).

How the values were obtained:
[1] = system: human epidermal cancer cell tumor (A-431); assay: Effect of TGF-α and cisplatin on tumor growth in the A431 human epidermal cancer MetaMouse model; assay type: in vivo, nude mice; settings: FIGS. 1 and 3; for tumor growth (mean tumor volume): A431 tumor orthotopically implanted in nude mice, cisplatinum 10 mg/kg days 3, 9 (20), TGF-alpha 50 ug/kg days 3-7, 9-13 (20-24), 26 days; for tumor growth inhibition compared with cisplatinum treatment: TGF-alpha alone 50 ug/kg vs cisplatinum 10 mg/kg, A431 model
Method: (§1) Using a nude mouse model and human epidermal cancer cell tumor (A-431), having 10^7 or greater EGF receptors, the inventors investigated whether TGF-alpha would promote tumor growth. In a parallel experiment, the tumor was treated with a chemotherapeutic agent, cisplatinum. […] In a further parallel experiment, the inventors investigated whether TGF-alpha would directly influence the survival of the tumor. […] Five mice in three of the four groups were sacrificed at this time. […] Phase 3 began on day 20.
The study consisted of four groups of nude mice:
1. Group A—control (15 animals); this group was implanted with tumor and treated only with placebo (according to TGF-injection schedule).
2. Group B—TGF-controls (10 animals); this group was implanted with tumor and received only TGF-injection (according to TGF-injection schedule).
(§2) PHASE 1 :On day 1 all animals were orthotopically implanted with tumor in their breast fat flaps (2-3 tumor tissue specimens per animal). On day 3 in the morning the tumor was measured in all animals. Then animals from group B and D received the first injection of TGF-alpha, animals from group A and C received placebo. Six hours later animals from group C and D received cisplatin injection.
(§3) TGF-alpha was injected at a concentration of 1 microgram per mouse (assuming mouse weighs 20 gram) or 50 microgram per kg.
On day 4, day 5, day 6 and day 7 animals from group B and D received additional TGF-alpha injections spaced 24 hours from the first administration; at the same time, animals from group A and C received placebo.
On day 6 the tumor load in all animals was measured again.
On day 8, five animals were randomly selected from group A, C and D for sacrifice. Their tumor load was measured again, their blood drawn and their intestines, kidneys and spleen removed and preserved. The spleen weight was determined at the time of collection.
(§4) Phase 2. […] On day 10, day 11, day 12 and day 13 animals from group B and D received additional TGF-alpha injections spaced 24 hours from the 9th day administration; animals from group A and C receive placebo at the same time.
On day 12 the tumor load in all animals was measured again. On day 15 […]. their tumor load was measured again, their blood drawn and their intestines, kidneys and spleen removed and preserved. The spleen weight was determined at the time of collection.
Phase 3. On day 20 in the morning the tumor load was measured in all remaining animals according to anticancer procedure. Each group of 10 (groups A, B, C, D) mice were divided into two subgroups: for phase 3A, 5 animals in each group were maintained with no further treatments). […]

[2] = background statement; cited from earlier work
[3] = Toxicity (body weight, death) in tumor-bearing nude mice of the A431 model; assay type: in vivo
Source text: as §1, with “growth.” for “growth. In a parallel experiment, the tumor was treated with a chemotherapeutic agent, cisplatinum.”
as §2, with “placebo.” for “placebo. Six hours later animals from group C and D received cisplatin injection.”
as §3, §4
Phase 3. On day 20 in the morning the tumor load was measured in all remaining animals according to anticancer procedure. Each group of 10 (groups A, B, C, D) mice were divided into two subgroups: for phase 3A, 5 animals in each group were maintained with no further treatments). For phase 3B, 5 animals from original groups B and D received another injection of TGF-alpha and animals from original group A and C received placebo. […] On day 21, 22, 23 and 24 the five animals from original groups B and D received additional TGF-alpha injections spaced 24 hours from the 20th day of administration; the five selected animals from original group a and c received placebo at the same time. The experiment was terminated on day 26.
body weight—daily for all animals

[4] = system: EGF receptor family (e.g., ErbB1 through 4); settings: background statement; cited from earlier work

Compound | tumor growth (mean tumor volume) [1] | acid and heat stability [2] | protection against death caused by the third treatment of cisplatinum ([3]; TGF-alpha 50 ug/kg days 20-24 with cisplatinum 10 mg/kg day 20, FIG. 4) | protection against toxicity of cisplatinum ([3]; TGF-alpha 50 ug/kg given with cisplatinum 10 mg/kg, FIGS. 2 and 4) | body weight ([3]; mean body weight, daily, 26 days, FIGS. 2 and 4, cisplatin effect at the third treatment (day 20)) | tumor growth inhibition compared with cisplatinum treatment [1] | tumor growth inhibition compared with cisplatinum treatment ([1]; listed as TGF-α) | binding affinity [4]
N.N.[Cl][Pt][Cl] [cisplatinum, cisplatin, reference compound] | more effective than the control | – | – | – | – | – | – | –
transforming growth factor alpha [TGF-alpha] | inhibited tumor growth | acid and heat stable | protected against the death | protected against toxicity of cisplatinum | no effect on body weight | to the same degree as cisplatinum treatment | as effective as cisplatin | high affinity in the nanomolar range
